Test: 14C-radiolabeled Tasimelteon administered to healthy male subjects; HPLC radio-chromatography of plasma, urine and feces
Assay type: in vivo, human
Details: for share of the radioactivity of the administered dose in urine: 0-72 h urine samples; for share of the radioactivity of the administered dose in feces: fecal samples; for feces (0-120 h) (% dose) / plasma (% AUC) / urine (0-72 h) (% dose) / total excreta (% dose): healthy male subjects, 100 μCi/100 mg 14C-Tasimelteon; for plasma (% AUC): plasma 0.5-24 h; for total excreta (% dose): urine plus feces; for share of the total plasma radioactivity: plasma samples
Protocol: ^14C-radiolabeled (1R-trans)-N-[[2-(2,3-dihydro-4-benzofuranyl)cyclopropyl]methyl]propanamide was administered to healthy male subjects at a dosage of 100 μCi/100 mg. Plasma, urine, and fecal samples were then collected from subjects at predetermined time intervals following administration (0.5 h, 1 h, 2 h, 8 h, and 24 h for plasma; 0-6 h, 6-12 h, 12-24 h, and 24-72 h for urine; and 0-24 h, 24-48 h, and 48-120 h for feces). Plasma and fecal samples were subjected to methanol extraction to remove proteins. All samples were centrifuged to remove solids prior to HPLC radio-chromatography. Radioactivity in each fraction was determined by Packard TopCount® NXT™ Microplate Scintillation and Luminescence Counter technology. Selected urine, plasma, and fecal extracts were analyzed by LC/MS, coupled with a radioactivity monitor.
The proportionate presence of (1R-trans)-N-[[2-(2,3-dihydro-4-benzofuranyl)cyclopropyl]methyl]propanamide and the M9 and M11 metabolites in plasma, urine, and feces of the subjects is shown below in Table 1.

share of the radioactivity of the administered dose in feces | feces (0-120 h) (% dose) | plasma (% AUC) | urine (0-72 h) (% dose) | total excreta (% dose) | share of the total plasma radioactivity | SMILES | share of the radioactivity of the administered dose in urine
minor fecal metabolites | 0.85 % dose | 19.79 | 29.69 % dose | 30.54 % dose | ~20% | CCC(=O)NC[C@@H]1C[C@H]1c1cccc(O)c1CC(=O)O [M9] | ~30%
– | not detected | 3.56 | not detected | not detected | approximately 3.5% | CCC(=O)NC[C@@H]1C[C@H]1c1cccc(O)c1CCO [M11] | Neither unchanged Tasimelteon nor metabolite M11 were found
minor fecal metabolites | 0.04 % dose | 8.22 | not detected | 0.04 % dose | approximately 8% | CCC(=O)NC[C@@H]1C[C@H]1c1cccc2c1CCO2 [Tasimelteon, (1R-trans)-N-[[2-(2,3-dihydro-4-benzofuranyl)cyclopropyl]methyl]propanamide] | Neither unchanged Tasimelteon nor metabolite M11 were found
